Measurements reported in patent US3956279A, “Crystalline pivaloyloxymethyl d(-)-α-aminobenzylpenicillinate” (priority 1973, dated 1976).
≈ marks a conversion by molar mass, not a printed value. Counter-ions that a name gives are not always drawn. Like-named read-outs stand apart in the source and are kept apart here. Blank lines part the entries; values can stand above or below the molecule they belong to.

Key:
[1] = salts of pivampicillin, cited from earlier work
[2] = Solubilities at room temperature (about 25°C) in various solvents; format: physicochemical
[3] = Density of crystalline pivampicillin compared with its salts; format: physicochemical; conditions: crystalline pivampicillin versus its salts
[4] = Stability of crystalline pivampicillin and of the preparation of Example 20 (chemical analyses); format: physicochemical; conditions: crystalline pivampicillin in medical preparations
Method: Thus the preparation, the formulation of which is described in Example 20 of the present Specification, had according to chemical analyses a stability corresponding to a decrease in activity in the order of 5% over a 2 years period when stored at 20°C and a relative humidity of 40%.

[5] = chemical substance pivampicillin, under certain conditions; cited from earlier work
[6] = set-up: species or system healthy volunteers (adults); conditions: human, in vivo
Method: The above preparation was given to five healthy volunteers (adults), and as will appear from Table II below, gave rise to high serum concentrations and a high urinary recovery, as expressed below in terms of serum concentrations and urinary excretion, respectively.
SERUM CONCENTRATIONS (mcg per ml) AND URINARY EXCRETION
(in per cent of dose administered) OF AMPICILLIN IN FIVE
HEALTHY VOLUNTEERS (ADULTS) FOLLOWING ORAL ADMINISTRATION
OF 10 ml OF "PIVAMPICILLIN ORAL SUSPENSION" CONTAINING
PIVAMPICILLIN BASE CORRESPONDING TO 250 mg AMPICILLIN

SMILES: CC(C)(C)C(=O)OCOC(=O)[C@@H]1N2C(=O)[C@@H](NC(=O)[C@H](N)c3ccccc3)[C@H]2SC1(C)C
Solubility of salt in water (in words) [1]: slightly soluble in water

SMILES: CC(C)(C)C(=O)OCOC(=O)[C@@H]1N2C(=O)[C@@H](NC(=O)[C@H](N)c3ccccc3)[C@H]2SC1(C)C [hydrochloride, pivaloyloxymethyl D(-)-α-aminobenzylpenicillinate, hydrochloride]
Solubility of salt in water (in words) ([1]; hydrochloride): readily soluble in water

Solubility in water (in words) ([2]; crystalline pivampicillin): extremely low solubility in water | Stability in methanol ([2]; methanol, room temperature (about 25°C)): destruction | solubility ([2]; organic solvent or mixture, acetonitrile, room temperature (about 25°C), read-out: Solubility in acetonitrile): 450000 µg/mL (≈ 971 mM) | solubility ([2]; organic solvent or mixture, cyclohexane, room temperature (about 25°C), read-out: Solubility in cyclohexane): 150 µg/mL (≈ 0.324 mM) | solubility ([2]; organic solvent or mixture, ethanol, room temperature (about 25°C), read-out: Solubility in ethanol): 40000 µg/mL (≈ 86.3 mM) | solubility ([2]; organic solvent or mixture, ether, room temperature (about 25°C), read-out: Solubility in ether): 10000 µg/mL (≈ 21.6 mM) | solubility ([2]; organic solvent or mixture, isopropanol, room temperature (about 25°C), read-out: Solubility in isopropanol): 12000 µg/mL (≈ 25.9 mM) | solubility ([2]; organic solvent or mixture, isopropylether, room temperature (about 25°C), read-out: Solubility in isopropylether): 1000 µg/mL (≈ 2.16 mM) | solubility ([2]; organic solvent or mixture, light petroleum (bp. 60-80°C), room temperature (about 25°C), read-out: Solubility in light petroleum): 20 µg/mL (≈ 0.0431 mM) | solubility ([2]; organic solvent or mixture, methanol, room temperature (about 25°C), (destruction), read-out: Solubility in methanol): > 500000 µg/mL | solubility ([2]; water, room temperature (about 25°C), read-out: Solubility in water): 100 µg/mL (≈ 0.216 mM) | Density [3]: higher density than its salts | Stability (in words) [4]: stable compound | Absorption (in words) [6]: excellent absorption
SMILES: CC(C)(C)C(=O)OCOC(=O)[C@@H]1N2C(=O)[C@@H](NC(=O)[C@H](N)c3ccccc3)[C@H]2SC1(C)C [pivampicillin, pivaloyloxymethyl D(-)-α-aminobenzylpenicillinate]
Tendency to polymerize [5]: apt to polymerize
